Data reported in the supplement of paper PMC13380429.

How the values were obtained:
Details in all cases: 72 h
Caco-2 [1] = test: cell viability relative to DMSO; higher = less toxic
Vero E6 [2] = test: as above
Calu-3 [3] = test: as above
HepG2 [4] = test: as above
U2OS [5] = test: as above
Caco-2 [6] = test: drug sensitivity score (DSS) for viability; higher = more toxic; extreme values may be limits of the assay
Vero E6 [7] = test: as above
Calu-3 [8] = test: as above
HepG2 [9] = test: as above
U2OS [10] = test: as above
Caco-2 [11] = test: relative viability EC50 (midpoint between 100% and the lowest measured viability); higher = less toxic
Vero E6 [12] = test: as above
Calu-3 [13] = test: as above
HepG2 [14] = test: as above
U2OS [15] = test: as above

SMILES | cell viability (Caco-2 [1]; 1 nM) [%] | cell viability (Caco-2 [1]; 10 nM) [%] | cell viability (Caco-2 [1]; 100 nM) [%] | cell viability (Caco-2 [1]; 1000 nM) [%] | cell viability (Caco-2 [1]; 10000 nM) [%] | cell viability (Vero E6 [2]; 1 nM) [%] | cell viability (Vero E6 [2]; 10 nM) [%] | cell viability (Vero E6 [2]; 100 nM) [%] | cell viability (Vero E6 [2]; 1000 nM) [%] | cell viability (Vero E6 [2]; 10000 nM) [%] | cell viability (Calu-3 [3]; 1 nM) [%] | cell viability (Calu-3 [3]; 10 nM) [%] | cell viability (Calu-3 [3]; 100 nM) [%] | cell viability (Calu-3 [3]; 1000 nM) [%] | cell viability (Calu-3 [3]; 10000 nM) [%] | cell viability (HepG2 [4]; 1 nM) [%] | cell viability (HepG2 [4]; 10 nM) [%] | cell viability (HepG2 [4]; 100 nM) [%] | cell viability (HepG2 [4]; 1000 nM) [%] | cell viability (HepG2 [4]; 10000 nM) [%] | cell viability (U2OS [5]; 1 nM) [%] | cell viability (U2OS [5]; 10 nM) [%] | cell viability (U2OS [5]; 100 nM) [%] | cell viability (U2OS [5]; 1000 nM) [%] | cell viability (U2OS [5]; 10000 nM) [%] | drug sensitivity score (Caco-2 [6]) | drug sensitivity score (Vero E6 [7]) | drug sensitivity score (Calu-3 [8]) | drug sensitivity score (HepG2 [9]) | drug sensitivity score (U2OS [10]) | relative viability EC50 (Caco-2 [11]) [µM] | relative viability EC50 (Vero E6 [12]) [µM] | relative viability EC50 (Calu-3 [13]) [µM] | relative viability EC50 (HepG2 [14]) [µM] | relative viability EC50 (U2OS [15]) [µM]
OC[C@H]1O[C@H](O)C[C@@H](O)[C@@H]1O [2-deoxyglucose] | 102 | 66.9 | 105 | 86.9 | 101 | 93.4 | 102 | 90.6 | 100 | 110 | 108 | 98.9 | 111 | 100 | 95.5 | 93.2 | 96 | 97.3 | 106 | 97.4 | 100 | 102 | 101 | 99.4 | 98 | 0 | 0 | 0 | 0 | 0 | > 10 | > 10 | > 10 | > 10 | > 10
O=C1CN=C(c2cccc(Br)c2)c2oc3ccccc3c2N1 [5-BDBD] | 101 | 96.6 | 102 | 106 | 97 | 96.7 | 92.8 | 94.6 | 93.5 | 95.9 | 103 | 97.2 | 112 | 96.8 | 111 | 98.3 | 100 | 94.4 | 96.8 | 92.5 | 104 | 97.5 | 95.5 | 99.7 | 101 | 0 | 0 | 0 | 0 | 0 | > 10 | > 10 | > 10 | > 10 | > 10
O=C(O)c1cc(O)c2ccc(Cl)cc2n1 [7-chlorokynurenic-acid] | 102 | 96.1 | 97.1 | 99.1 | 109 | 96.7 | 102 | 94.2 | 95.3 | 108 | 99.9 | 94.1 | 98.4 | 98 | 108 | 106 | 104 | 100 | 101 | 97 | 101 | 97.6 | 96.4 | 94.3 | 108 | 0 | 0 | 0 | 0 | 0 | > 10 | > 10 | > 10 | > 10 | > 10
CCCN(C/C=C/I)[C@H]1CCc2ccc(O)cc2C1 [7-hydroxy-PIPAT] | 99.8 | 110 | 104 | 108 | 101 | 102 | 104 | 103 | 103 | 96 | 111 | 97.3 | 90.5 | 102 | 105 | 102 | 104 | 97.8 | 101 | 98.4 | 98 | 96.7 | 101 | 103 | 98.3 | 0 | 0 | 0 | 0 | 0 | > 10 | > 10 | > 10 | > 10 | > 10
O=C(O)c1ccccc1NC(=O)N1CCC(c2ccccc2C(F)(F)F)CC1 [A-1120] | 100 | 93.2 | 98.4 | 96.8 | 84.2 | 101 | 100 | 93.1 | 95.4 | 93.5 | 102 | 96.5 | 100 | 94.1 | 106 | 88.2 | 96.1 | 107 | 103 | 108 | 104 | 104 | 102 | 100 | 98.7 | 0.6 | 0 | 0 | 0 | 0 | > 10 | > 10 | > 10 | > 10 | > 10
Nc1ncnc2nc(-c3ccc(N4CCOCC4)nc3)cc(-c3cccc(Br)c3)c12 [ABT-702] | 107 | 99.9 | 102 | 104 | 93.4 | 96.1 | 100 | 95.2 | 94.4 | 88.1 | 103 | 83.3 | 112 | 95.3 | 100 | 104 | 96.4 | 96.5 | 108 | 89.6 | 106 | 103 | 104 | 99.8 | 101 | 0 | 0 | 0 | 0 | 0 | > 10 | > 10 | > 10 | > 10 | > 10
CC(=O)Nc1cccc2c1c(Sc1ccc(Cl)cc1)c(C)n2CC(=O)O [AZD1981] | 102 | 105 | 91.6 | 102 | 103 | 98.6 | 98.1 | 97.4 | 97.4 | 94.4 | 102 | 96 | 89.7 | 94.3 | 96.2 | 100 | 103 | 105 | 99.8 | 97.9 | 94.6 | 102 | 94.3 | 101 | 97.6 | 0 | 0 | 0 | 0 | 0 | > 10 | > 10 | > 10 | > 10 | > 10
C[C@@H]1Cc2c([nH]c3ccccc23)[C@@H](c2c(F)cc(/C=C/C(=O)O)cc2F)N1CC(C)(C)F [AZD9496] | 94.2 | 104 | 99.6 | 94.7 | 93.5 | 102 | 100 | 104 | 101 | 91.7 | 97.1 | 91.7 | 90.8 | 93.6 | 105 | 103 | 90 | 104 | 98.8 | 97.5 | 98.8 | 100 | 99 | 102 | 98.9 | 0 | 0 | 0 | 0 | 0 | > 10 | > 10 | > 10 | > 10 | > 10
CCOC(=O)c1c[nH]cn1 [C-751] | 88.6 | 91.6 | 96.4 | 98.3 | 90.4 | 99.5 | 96.7 | 99.6 | 92.6 | 100 | 100 | 97.2 | 90.3 | 92.9 | 104 | 104 | 99.6 | 95.6 | 93.1 | 109 | 100 | 100 | 94.6 | 102 | 93 | 0 | 0 | 0 | 0 | 0 | > 10 | > 10 | > 10 | > 10 | > 10
CCN1C(=O)CNc2ncc(-c3ccc(-c4nc[nH]n4)nc3C)nc21 [CC-115] | 94.7 | 96.4 | 89.2 | 39.8 | 20.5 | 108 | 103 | 103 | 64.4 | 24.8 | 106 | 92 | 91.9 | 37.3 | 21.6 | 108 | 102 | 105 | 57.2 | 25.1 | 100 | 102 | 99.6 | 59.4 | 6.6 | 12.7 | 8.7 | 12.8 | 9.3 | 10.5 | 0.411 | 1.04 | 0.4 | 0.894 | 1.11
CN[C@@H](C)C(=O)N[C@H](C(=O)N1CCC[C@H]1C(=O)Nc1sc(-c2ncco2)nc1-c1ccccc1)C1CCCCC1 [CUDC-427] | 98.1 | 101 | 98.5 | 109 | 99.7 | 94.2 | 96.6 | 105 | 105 | 111 | 96.6 | 107 | 86.5 | 102 | 85.6 | 111 | 91.5 | 96.3 | 90 | 95.2 | 98 | 99.9 | 99.2 | 108 | 92.7 | 0 | 0 | 0.1 | 0 | 0 | > 10 | > 10 | > 10 | > 10 | > 10
COC(=O)c1ccccc1NC(=O)c1ccc(F)cc1 [EXO-1] | 99.5 | 93 | 100 | 103 | 100 | 95.2 | 94.6 | 91 | 93.6 | 99.5 | 97.9 | 98.1 | 99.6 | 95.6 | 96.5 | 95.6 | 99.9 | 91.8 | 94.7 | 111 | 98.7 | 91.8 | 98.3 | 95.7 | 98.8 | 0 | 0 | 0 | 0 | 0 | > 10 | > 10 | > 10 | > 10 | > 10
O=C(N[C@@H]1Cc2ccccc2N(C[C@@H](O)CO)C1=O)c1cc2cc(Cl)sc2[nH]1 [GPi-688] | 101 | 98 | 96.9 | 94.2 | 92.9 | 99.9 | 102 | 104 | 100 | 90.5 | 102 | 99.3 | 99.9 | 94.1 | 87.8 | 96 | 104 | 98.1 | 104 | 100 | 98.4 | 102 | 95.2 | 96.8 | 94.7 | 0 | 0 | 0.3 | 0 | 0 | > 10 | > 10 | > 10 | > 10 | > 10
CCCn1c(=O)c2[nH]c(-c3cnn(Cc4cccc(C(F)(F)F)c4)c3)nc2n(CC)c1=O [GS-6201] | 98.5 | 104 | 105 | 108 | 100 | 98.5 | 96.1 | 96.5 | 97.8 | 104 | 103 | 109 | 96.3 | 96.1 | 97.4 | 106 | 91.6 | 104 | 94.2 | 96.8 | 96.9 | 101 | 96.3 | 105 | 100 | 0 | 0 | 0 | 0 | 0 | > 10 | > 10 | > 10 | > 10 | > 10
O=C(O)CNC(=O)c1c(O)c2ccccc2n(Cc2ccccc2)c1=O [IOX2] | 95.4 | 97.1 | 92 | 102 | 93.2 | 104 | 99.7 | 102 | 106 | 98.4 | 87 | 88 | 85.8 | 96 | 87.4 | 108 | 106 | 108 | 93.9 | 106 | 96.2 | 102 | 94.8 | 98.5 | 95.6 | 0 | 0 | 0 | 0 | 0 | > 10 | > 10 | > 10 | > 10 | > 10
